This is an account of results in patent US6339093B1, “Isoquinoline derivatives” (Hoffmann-la Roche Inc., priority 1999, dated 2002).

Where a name gives a salt, the structure may show the parent alone.

Data set [1] deals with T1, NMDA receptor (Rattus norvegicus, UniProt P35439+Q00960).
T1 construct: Membranes were prepared by homogenization of the whole brain minus cerebellum and medulla oblongata; from tissue; host or cells: rat whole brain minus cerebellum and medulla oblongata, membranes
Nature of the data set: 3H-[R-(R*,S*)]-a-(4-Hydroxy-phenyl)-b-methyl-4-(phenyl-methyl)-1-piperidine propanol binding (displacement, rat brain membranes). The settings on record: displacement of 5 nM 3H-radioligand, rat whole brain membranes minus cerebellum and medulla oblongata, 2 hours at 4° C. How it is done:
^3H-[R-(R*,S*)]-a-(4-Hydroxy-phenyl)-b-methyl-4-(phenyl-methyl)-1-piperidine propanol binding
Male Füllinsdorf albino rats weighing between 150-200 g were used. Membranes were prepared by homogenization of the whole brain minus cerebellum and medulla oblongata with a Polytron (10.000 rpm, 30 seconds), in 25 volume of a cold Tris-HCl 50 mM, EDTA 10 mM, pH 7.1 buffer. The homogenate was centrifuged at 48,000 g for 10 minutes at 4° C. The pellet was resuspended using the Polytron in the same volume of buffer and the homogenate was incubated at 37° C. for 10 minutes. After centrifugation the pellet was homogenized in the same buffer and frozen at −80° C. for at least 16 hours but not more than 10 days. For the binding assay the homogenate was thawed at 37° C., centrifuged and the pellet was washed three times as above in a Tris-HCl 5 mM, pH 7.5 cold buffer. The final pellet was resuspended in the same buffer and used at a final concentration of […] of protein/ml.
[R-(R*,S*)]-α-(4-Hydroxy-phenyl)-β-methyl-4-(phenyl-methyl)-1-piperidine propanol is a compound known to bind selectively to the NMDA receptor (J. Neurochem., Vol. 70., No. 5, 1998). ^3H-[R-(R*,S*)]-α-(4-Hydroxy-phenyl)-β-methyl-4-(phenyl-methyl)-1-piperidine propanol binding experiments were performed using a Tris-HCl 50 mM, pH 7.4 buffer. For displacement experiments 5 nM of 3H-[R-(R*,S*)]-a-(4-Hydroxy-phenyl)-b-methyl-4-(phenyl-methyl)-1-piperidine propanol were used and non specific binding was measured using 10 mM of tetrahydroisoquinoline and usually it accounts for 10% of the total. The incubation time was 2 hours at 4° C. and the assay was stopped by filtration on Whatmann GF/B glass fiber filters (Unifilter-96, Packard, Zürich, Switzerland). The filters were washed 5 times with cold buffer. The radioactivity on the filter was counted on a Packard Top-count microplate scintillation counter after addition of […] of microscint 40 (Canberra Packard S.A., Zürich, Switzerland).
The effects of compounds were measured using a minimum of 8 concentrations and repeated at least once. The pooled normalized values were analyzed using a non-linear regression calculation program which provide IC50 with their relative upper and lower 95% confidence limits.

T1 sequence (Q00960 27-1482, other chains not shown): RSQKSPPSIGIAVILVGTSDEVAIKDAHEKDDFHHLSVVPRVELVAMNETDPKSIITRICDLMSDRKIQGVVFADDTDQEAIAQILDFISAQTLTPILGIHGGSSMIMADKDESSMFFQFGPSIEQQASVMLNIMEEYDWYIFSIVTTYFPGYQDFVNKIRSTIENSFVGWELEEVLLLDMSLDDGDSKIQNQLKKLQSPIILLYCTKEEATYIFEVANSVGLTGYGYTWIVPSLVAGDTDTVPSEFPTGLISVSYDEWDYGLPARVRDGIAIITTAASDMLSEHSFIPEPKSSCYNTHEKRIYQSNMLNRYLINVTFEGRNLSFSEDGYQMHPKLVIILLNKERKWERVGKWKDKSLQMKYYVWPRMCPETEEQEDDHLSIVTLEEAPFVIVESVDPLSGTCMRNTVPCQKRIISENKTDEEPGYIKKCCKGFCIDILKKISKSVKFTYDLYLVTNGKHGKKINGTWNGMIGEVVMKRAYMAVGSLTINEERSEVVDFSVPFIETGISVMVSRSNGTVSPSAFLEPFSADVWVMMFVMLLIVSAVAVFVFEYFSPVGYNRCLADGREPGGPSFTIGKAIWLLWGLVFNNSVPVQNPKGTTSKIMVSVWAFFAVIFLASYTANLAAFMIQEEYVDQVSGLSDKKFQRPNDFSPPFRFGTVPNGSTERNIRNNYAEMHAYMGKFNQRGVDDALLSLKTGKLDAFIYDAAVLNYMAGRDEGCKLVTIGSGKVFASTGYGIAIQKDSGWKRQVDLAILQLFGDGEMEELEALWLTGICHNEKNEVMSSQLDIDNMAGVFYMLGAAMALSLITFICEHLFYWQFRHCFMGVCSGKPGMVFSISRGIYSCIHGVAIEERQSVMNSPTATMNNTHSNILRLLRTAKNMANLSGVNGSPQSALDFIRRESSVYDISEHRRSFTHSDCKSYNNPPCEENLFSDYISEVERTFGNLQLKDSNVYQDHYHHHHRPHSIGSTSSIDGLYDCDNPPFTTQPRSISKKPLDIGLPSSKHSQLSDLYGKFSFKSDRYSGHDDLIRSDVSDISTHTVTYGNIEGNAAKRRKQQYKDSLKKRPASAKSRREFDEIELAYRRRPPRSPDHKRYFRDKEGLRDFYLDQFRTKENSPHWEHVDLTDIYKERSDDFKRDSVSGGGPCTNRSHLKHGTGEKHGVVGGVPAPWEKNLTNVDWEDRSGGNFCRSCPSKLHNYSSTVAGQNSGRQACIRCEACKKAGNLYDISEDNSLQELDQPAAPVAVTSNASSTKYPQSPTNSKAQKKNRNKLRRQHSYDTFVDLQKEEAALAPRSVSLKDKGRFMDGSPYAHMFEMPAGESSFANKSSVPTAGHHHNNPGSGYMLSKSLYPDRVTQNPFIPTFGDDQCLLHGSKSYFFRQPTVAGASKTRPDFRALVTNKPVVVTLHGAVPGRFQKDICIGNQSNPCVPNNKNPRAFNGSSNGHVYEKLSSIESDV

One may read the melting point as the temperature, or range, at which the solid turns liquid. `Cc1cc(N2CCc3ccccc3C2)c2ccccc2n1.Cl`: the melting point was in the range of 210 to 211 °C. The term IC50 denotes the point on the concentration scale where inhibition reaches its midpoint. Lower therefore signals greater potency. In turn, `Cl.O[C@@H]1CCN(c2cc(N3CCc4ccccc4C3)c3ccccc3n2)C1` [Example 4, (R)-1-[4-(3,4-Dihydro-1H-isoquinolin-2-yl)-quinolin-2-yl]-pyrrolidin-3-ol hydrochloride] displayed a melting point of 270 to 274 °C. The compound further showed an IC50 in data set [1] of 170 nM.

`COc1cccc2c(N3CCc4ccccc4C3)ccnc12.Cl` gave a melting point of 240 °C. In data set [1], `Fc1ccc2nccc(N3CCc4ccccc4C3)c2c1` [Example 18, 4-(3,4-Dihydro-1H-isoquinolin-2-yl)-6-fluoro-quinoline hydrochloride] showed an IC50 of 890 nM. On the same count and under the same terms, under `Fc1cccc2c(N3CCc4ccccc4C3)ccnc12` [Example 16, 4-(3,4-Dihydro-1H-isoquinolin-2-yl)-8-fluoro-quinoline hydrochloride] stands 650 nM. `Cc1ccc2c(N3CCc4ccccc4C3)ccnc2c1.Cl` [Example 13, 4-(3,4-Dihydro-1H-isoquinolin-2-yl)-7-methyl-quinoline hydrochloride]: the melting point lay in the range of 251 to 252 °C. The compound further gave a 50% inhibitory concentration (IC50) in data set [1] of 190 nM. Consider `Clc1ccc2c(N3CCc4ccccc4C3)ccnc2c1` [Example 15, 7-Chloro-4-(3,4-dihydro-1H-isoquinolin-2-yl)-quinoline hydrochloride], for which the IC50 in data set [1] is 320 nM.

On to `OCCNc1cc(N2CCc3ccccc3C2)c2ccccc2n1` [Example 2, 2-[4-(3,4-Dihydro-1H-isoquinolin-2-yl)-quinolin-2-ylamino]-ethanol hydrochloride], for which, in data set [1], the concentration for half-maximal inhibition (IC50) was determined as 58 nM. `OC[C@H]1CCCN1c1cc(N2CCc3ccccc3C2)c2ccccc2n1` [Example 5, (R)-{1-[4-(3,4-Dihydro-1H-isoquinolin-2-yl)-quinolin-2-yl]-pyrrolidin-2-yl}-methanol]: the melting point lay within 74 to 80 °C. The compound further came in with a concentration for half-maximal inhibition (IC50) in data set [1] of 290 nM. With `Cl.c1ccc2c(c1)CN(c1ccnc3ccccc13)C2`, the melting point lay within 264 to 267 °C. Consider `Cl.Clc1ccc2c(c1)CN(c1ccnc3ccccc13)C2`, for which the melting point lay in the range of 270 to 275 °C. Still for that read-out and setting: under `Cl.c1ccc2c(c1)CCN(c1ccnc3ccccc13)C2` stands 200 °C.
